In patent US11568956B2, “Methods for identifying inhibitors of amyloid protein aggregation” (Treventis Corporation, priority 2008, dated 2023):
Counter-ions that a name gives are not always drawn.

Molecular target: T1, Aβ 1-40 (Homo sapiens, UniProt P05067)
T1 construct: ThT aggregation assays of Aβ 1-40 and alpha synuclein
Test: ThT aggregation assay of Aβ 1-40
Type: biochemical
Settings: not given
Protocol: The anti-amyloid activity of these compounds was evaluated by ThT aggregation assays of Aβ 1-40 and alpha synuclein, as set forth below. The column “A-Syn” below is a functional ThT aggregation assay of alpha synuclein.

T1 sequence (P05067 672-711 limits assumed): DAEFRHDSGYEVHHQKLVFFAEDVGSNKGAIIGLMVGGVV

Compound | IC50
Cc1sc(/C=N/NC(=O)c2cccc([N+](=O)[O-])c2)cc1[N+](=O)[O-] | > 20 µM
COc1ccc(N(C)S(=O)(=O)c2ccc(NS(=O)(=O)c3cccs3)cc2)c(OC)c1 | > 20 µM
Cc1ccc(N(C)C(=O)C2CC(O)CN2C(=O)OCC(C)C)cc1C (centres unmarked) | > 20 µM
O=C(COc1ccccc1)Nc1ccc2c(c1)C(=O)NC2=O | > 20 µM
COc1ccc(CC(=O)Nc2ccc(S(=O)(=O)Nc3nc(C)cc(C)n3)cc2)cc1 | > 50 µM
COc1ccc(C2(C(=O)Nc3ccc(S(=O)(=O)Nc4ncccn4)cc3)CCCC2)cc1OC | > 50 µM
COc1ccccc1NC(=O)C1CC(O)CN1C(=O)OCc1ccccc1 (centres unmarked) | > 20 µM

Molecular target: Aβ (Homo sapiens, UniProt P05067)
Sequence (P05067 672-711 limits assumed): as above
Test: not given
Settings: read-out: Expt (IC50); cited from earlier work

Compound | IC50
CCCN1C(=CC=CC=Cc2sc3ccccc3[n+]2CCC)Sc2ccccc21 [3,3′-dipropyl thiodicarbocyanine iodine] | 0.3 µM
NCCc1ccc(O)c(O)c1 [dopamine chloride] | 28.6 µM

Same assay, conditions: unit not in the table, μM; Masuda test set; read-out: Expt (IC50); cited from earlier work

Compound | IC50
C[C@H](CCC(=O)NCCS(=O)(=O)O)[C@H]1CC[C@H]2[C@@H]3CC[C@@H]4C[C@H](O)CC[C@]4(C)[C@H]3CC[C@]12C [taurolithocholic acid] | > 40 µM
O=C(c1ccc(O)cc1O)c1ccc(O)c(O)c1O [2,3,4,2′,4′-pentahydroxybenzophenone] | 2.8 µM
c1cc2c(cc1[C@H]1OC[C@H]3[C@@H]1CO[C@@H]3c1ccc3c(c1)OCO3)OCO2 [sesamin] | > 40 µM
O=c1cc2oc3cc(O)c(-c4ccc(O)cc4O)cc3nc-2cc1-c1ccc(O)cc1O [lacmoid] | 1.4 µM
Nc1c(/N=N/c2ccc(-c3ccc(/N=N/c4cc(S(=O)(=O)O)c5ccccc5c4N)cc3)cc2)cc(S(=O)(=O)O)c2ccccc12 [Congo red] | 0.9 µM
C[C@@H]1C(=O)O[C@H]2C[C@@]34[C@H]5C[C@@H](C(C)(C)C)[C@]36[C@@H](OC(=O)[C@@H]6O)O[C@@]4(C(=O)O5)[C@]21O [ginkgolide A] | > 40 µM
CN(C)c1ccc(N=Nc2ccccc2)cc1 [methyl yellow] | 1.5 µM
C[C@@H]1O[C@@H](OC[C@H]2O[C@@H](Oc3c(-c4ccc(O)c(O)c4)oc4cc(O)cc(O)c4c3=O)[C@H](O)[C@@H](O)[C@@H]2O)[C@H](O)[C@H](O)[C@H]1O [rutin] | 32 µM
Oc1cc(O)c2cc(O)c(-c3ccc(O)c(O)c3)[o+]c2c1 [cyanidin] | 4 µM
Cc1cc(O)c2c(=O)c3c(O)cc(O)c4c5c(O)cc(O)c6c(=O)c7c(O)cc(C)c8c1c2c(c34)c(c78)c65 [hypericin] | 0.9 µM
Oc1cc(O)c2c(c1)O[C@H](c1cc(O)c(O)c(O)c1)[C@@H](O)C2 [gallocatechin] | 7 µM
Cc1ccc2nc(-c3ccc(N)cc3)sc2c1 [2-(4-aminophenyl)-6-methylbenzothiazole] | 2 µM
CN(C)c1ccc2nc3ccc(N)cc3[s+]c2c1 [azure A] | 0.4 µM
CC1C(=O)OC2C(O)C34C5CC(C(C)(C)C)C36C(OC(=O)C6O)OC4(C(=O)O5)C12O (centres unmarked) [ginkgolide B] | 11 µM
C[C@H](CCC(=O)NCCS(=O)(=O)O)[C@H]1CC[C@H]2[C@@H]3[C@H](O)C[C@@H]4C[C@H](O)CC[C@]4(C)[C@H]3CC[C@]12C [laurochenodeoxycholic acid] | > 40 µM
Oc1cc(O)c2c(c1)O[C@H](c1ccc(O)c(O)c1)[C@H](O)C2 [epicatechin] | > 40 µM
Cc1ccc2nc(-c3ccc(N(C)C)cc3)sc2c1 [2-[4-(dimethylamino)phenyl]-6-methylbenzothiazole] | 2 µM
O=C(/C=C/c1ccc(O)c(O)c1)O[C@@H]1C[C@](O)(C(=O)O)C[C@@H](O)[C@H]1O [chlorogenic acid] | > 40 µM
CCCCC[C@H](O)CC(=O)CCc1ccc(O)c(OC)c1 [gingerol] | 25 µM
C[C@H](CCC(=O)NCCS(=O)(=O)O)[C@H]1CC[C@H]2[C@@H]3CC[C@@H]4C[C@H](OS(=O)(=O)O)CC[C@]4(C)[C@H]3CC[C@]12C [taurolithocholic aicd 3-sulfate] | > 40 µM
O=c1c(O)c(-c2ccc(O)cc2)oc2cc(O)cc(O)c12 [kaempferol] | 8 µM
O=C(/C=C/c1ccc(O)c(O)c1)O[C@H](Cc1ccc(O)c(O)c1)C(=O)O [rosmarinic acid] | 12 µM

Compound | IC50
CCCCC[C@@H](O)[C@H]1C(=O)O[C@H](C)[C@@H](O)/C=C/C=C/C=C/C=C/C=C(\C)[C@@H](O)C[C@H](O)C[C@H](O)C[C@H](O)C[C@H](O)C[C@H](O)C[C@@H]1O [filipin III] | 14.6 µM
C[C@H]1[C@H](C)CC[C@]2(C(=O)O)CC[C@]3(C)C(=CC[C@@H]4[C@@]5(C)C[C@@H](O)[C@H](O)[C@@](C)(CO)[C@@H]5CC[C@]43C)[C@H]12 [asiatic acid] | > 40 µM
CN(C)CCCN1c2ccccc2Sc2ccccc21 [promazine hydrochloride] | > 40 µM
O=C1NC(=O)c2cc(Nc3ccccc3)c(Nc3ccccc3)cc21 [4,5-dianilinophthalimide] | 2.9 µM
O=c1c(-c2ccc(O)cc2)coc2cc(O)ccc12 [daidzein] | > 40 µM
Oc1cc(O)c2c(c1)O[C@H](c1ccc(O)c(O)c1)[C@H](O)[C@H]2c1c(O)cc(O)c2c1O[C@H](c1ccc(O)c(O)c1)[C@H](O)C2 [procyanidin B2] | > 40 µM
CCC(=O)c1ccc2c(c1)N(CCCN(C)C)c1ccccc1S2 [propionylpromazine hydrochloride] | > 40 µM
O=c1c(O)c(-c2ccc(O)c(O)c2)oc2cc(O)cc(O)c12 [quercetin] | 5 µM
O=c1cc(-c2ccc(Oc3c(O)cc4oc(-c5ccc(O)cc5)cc(=O)c4c3O)cc2)oc2cc(O)cc(O)c12 [hinokiflavone] | 5 µM
Nc1ccc(N=Nc2ccc(-c3ccc(N=Nc4c(S(=O)(=O)O)cc5cc(S(=O)(=O)O)c(N=Nc6ccccc6)c(O)c5c4N)cc3)cc2)c(N)c1 [chlorazol black E] | 0.3 µM
O=C1C[C@@H](c2ccc(O)cc2)Oc2cc(O)cc(O)c21 [naringenin] | 25 µM
O=C(O)c1cc(/C=C/c2ccc(/C=C/c3ccc(O)c(C(=O)O)c3)c(F)c2)ccc1O [FSB] | 1.9 µM
CN(C)c1ccc2nc3ccc(=[N+](C)C)cc-3sc2c1 [methylene blue] | 2.3 µM
O=c1cc(-c2ccc(O)c(O)c2)oc2cc(O)cc(O)c12 [luteolin] | 3 µM
O=C(O[C@@H]1Cc2c(O)cc(O)cc2O[C@@H]1c1ccc(O)c(O)c1)c1cc(O)c(O)c(O)c1 [epicatechin 3-gallate] | 3 µM
CC(=O)c1ccc2c(c1)N(CCCN(C)C)c1ccccc1S2 [acetopromazine maleate salt] | > 40 µM
ginkgolide C | > 40 µM
taurohydroxycholic acid | > 40 µM
O=C(O)c1cc(/C=C/c2ccc(/C=C/c3ccc(O)c(C(=O)O)c3)c(Br)c2)ccc1O [BSB] | 6.4 µM
COc1cccc2c1C(=O)c1c(O)c3c(c(O)c1C2=O)C[C@@](O)(C(C)=O)C[C@@H]3O[C@H]1C[C@H](N)[C@H](O)[C@H](C)O1 [daunorubicin hydrochloride] | 1.4 µM
O=C(c1ccccc1)c1ccc(O)c(O)c1O [2,3,4-trihydroxybenzophenone] | 3.1 µM
O=c1c(O)c(-c2ccc(O)c(O)c2)oc2c(O)c(O)cc(O)c12 [gossypetin] | 1.3 µM

Compound | IC50
Oc1cc(O)c2cc(O)c(-c3cc(O)c(O)c(O)c3)[o+]c2c1 [delphinidin] | 3 µM
CCN(CCO)c1ccc(/N=N/c2sc3cc(OC)ccc3[n+]2C)cc1 [basic blue 41] | 1.4 µM
O=C(c1ccc(O)cc1O)c1ccc(O)cc1O [2,2′,4,4′-tetrahydroxybenzaphenone] | > 40 µM
C[C@H](CCC(=O)NCCS(=O)(=O)O)[C@H]1CC[C@H]2[C@@H]3[C@@H](O)C[C@@H]4C[C@H](O)CC[C@]4(C)[C@H]3CC[C@]12C [tauroursodeoxycholic acid] | > 40 µM
O=C(O[C@@H]1Cc2c(O)cc(O)cc2O[C@@H]1c1cc(O)c(O)c(O)c1)c1cc(O)c(O)c(O)c1 [epigallocatechin gallate] | 2 µM
O=c1cc(-c2ccc(O)cc2)oc2cc(O)cc(O)c12 [Apigenin] | > 40 µM
OCCN1CCN(CCCN2c3ccccc3Sc3ccc(Cl)cc32)CC1 [perphenazine] | > 40 µM
theaflavone | 2 µM
CN(C)CCCN1c2ccccc2Sc2ccc(Cl)cc21 [chlorpromazine hydrochloride] | > 40 µM
CCN(CC)CCCC(C)Nc1c2ccc(Cl)cc2nc2ccc(OC)cc12 (centres unmarked) [quinacrine] | 8.4 µM
CO[C@H]1/C=C/O[C@@]2(C)Oc3c(C)c(O)c4c(O)c(c(/C=N/N5CCN(C)CC5)c(O)c4c3C2=O)NC(=O)/C(C)=C\C=C\[C@H](C)[C@H](O)[C@@H](C)[C@@H](O)[C@@H](C)[C@H](OC(C)=O)[C@@H]1C [rifampicin] | 4.9 µM
O=C(c1cc(O)c(O)c(O)c1)c1ccc(O)c(O)c1O [exifone] | 0.7 µM
O=C(c1ccc(O)cc1)c1ccc(O)cc1 [4,4′-dihydroxybenzophenone] | > 40 µM
C=CCc1ccc(O)c(-c2cc(CC=C)ccc2O)c1 [magnolol] | > 40 µM
C[C@@H]1[C@H](O)[C@@H](C)/C=C/C=C/C=C/C=C/C=C/C=C/C=C/[C@H](O[C@@H]2O[C@H](C)[C@@H](O)[C@H](N)[C@@H]2O)C[C@@H]2O[C@](O)(C[C@@H](O)C[C@@H](O)[C@H](O)CC[C@@H](O)C[C@@H](O)CC(=O)O[C@H]1C)C[C@H](O)[C@H]2C(=O)O [amphotericin B] | 2.2 µM
O=C(c1ccccc1O)c1ccccc1O [2,2′-dihydroxybenzophenone] | > 40 µM
Oc1cc(O)c2c(c1)O[C@H](c1cc(O)c(O)c(O)c1)[C@H](O)C2 [epigallocatechin] | 7 µM
tocopherol | > 40 µM
phthalocyanine tetrasulfonate | 3.2 µM
O=S(=O)(O)c1ccc2c(N=Nc3ccc(N=Nc4ccccc4)cc3)c(O)c(S(=O)(=O)O)cc2c1 [Ponceau SS] | 1.2 µM
Oc1cc(O)c2c(c1)O[C@H](c1ccc(O)c(O)c1)[C@H](O)[C@H]2c1c(O)cc(O)c2c1O[C@H](c1ccc(O)c(O)c1)[C@@H](O)C2 [procyanidin B1] | 14 µM
